Test results: ChEMBL document CHEMBL5380777, “Efficacy, Mechanism, and Structure-Activity Relationship of 6-Methoxy Benzofuran Derivatives as a Useful Tool for Senile Osteoporosis” (J Med Chem, 2023)
The source made the active and inactive calls.

Tests used:
[1] = system: Mus musculus; assay: Anti osteoporosis in 16 months old C57 mouse assessed as fold increase in osteoclast level in femur administered at 30 mg/kg/day, IG continuously for 4 months by scRNA-seq analysis relative to control; assay type: functional; conditions: 2920 h
[2] = species on record: Danio rerio; assay: Anti osteoporosis activity in prednisone induced wildtype 3 days post-fertilization AB zebrafish osteoporosis model assessed as increase in bone fluorescence intensity (RVB = 13620 +/- 1692); assay type: functional
[3] = system: MC3T3-E1; assay: Induction of ALP activity in mouse MC3T3-E1 cells in osteogenic differentiation culture at 1 uM measured on day 7; assay type: functional, cell-based; conditions: time 7.0 day
[4] = system: Mus musculus; assay: Anti osteoporosis in 16 months old C57 mouse assessed as increase in bone mass administered at 30 mg/kg/day, IG continuously for 2 months by micro CT analysis relative to aged control group; assay type: functional, organism-based
[5] = system: Mus musculus; assay: Anti osteoporosis in 16 months old C57 mouse assessed as increase in bone mass administered at 30 mg/kg/day, IG continuously for 2 months by micro CT analysis relative to young control group; assay type: functional, organism-based
[6] = system: Mus musculus; assay: Anti osteoporosis in 16 months old C57 mouse assessed as increase in bone mass administered at 30 mg/kg/day, IG continuously for 4 months by micro CT analysis relative to aged control group; assay type: functional, organism-based
[7] = Toxicity in 16 months old C57 mouse assessed as change in body weight administered at 30 mg/kg/day, IG continuously for 4 months relative to aged control group; assay type: organism-based; conditions: in vivo, po, 2920 h
[8] = Toxicity in 16 months old C57 mouse assessed as change in blood glucose level administered at 30 mg/kg/day, IG continuously for 4 months; assay type: organism-based; conditions: in vivo, po, 2920 h
[9] = Toxicity in 16 months old C57 mouse assessed as change in creatinine level administered at 30 mg/kg/day, IG continuously for 4 months; assay type: organism-based; conditions: in vivo, po, 2920 h
[10] = Toxicity in 16 months old C57 mouse assessed as change in triglyceride level administered at 30 mg/kg/day, IG continuously for 4 months; assay type: organism-based; conditions: in vivo, po, 2920 h
[11] = system: Mus musculus; assay: Anti osteoporosis in 2.5 months old SAMP-6 rapid aging mouse model assessed as increase in bone mass administered at 30 mg/kg/day, IG continuously for 3 months in presence of ALN by micro CT analysis; assay type: functional, organism-based
[12] = system: Mus musculus; assay: Anti osteoporosis in 2.5 months old SAMP-6 rapid aging mouse model assessed as increase in number of osteoblast per square millimeter of the trabecular bone surface administered at 30 mg/kg/day, IG continuously for 3 months […]; assay type: functional, organism-based
[13] = Toxicity in 2.5 months old SAMP-6 rapid aging mouse model assessed as change in body weight administered at 30 mg/kg/day, IG continuously for 3 months; assay type: organism-based; conditions: in vivo, po, 2190 h
[14] = Toxicity in 2.5 months old SAMP-6 rapid aging mouse model assessed as change in body weight administered at 30 mg/kg/day, IG in presence of ALN continuously for 3 months; assay type: organism-based; conditions: in vivo, po, 2190 h
[15] = Toxicity in 2.5 months old SAMP-6 rapid aging mouse model assessed as morphological change in kidney administered at 30 mg/kg/day, IG continuously for 3 months in presence of ALN by hematoxylin and eosin staining analysis; assay type: organism-based; conditions: in vivo, po, 2190 h
[16] = Toxicity in 2.5 months old SAMP-6 rapid aging mouse model assessed as morphological change in liver administered at 30 mg/kg/day, IG continuously for 3 months by hematoxylin and eosin staining analysis; assay type: organism-based; conditions: in vivo, po, 2190 h
[17] = Toxicity in 2.5 months old SAMP-6 rapid aging mouse model assessed as morphological change in liver administered at 30 mg/kg/day, IG continuously for 3 months in presence of ALN by hematoxylin and eosin staining analysis; assay type: organism-based; conditions: in vivo, po, 2190 h
[18] = Toxicity in 2.5 months old SAMP-6 rapid aging mouse model assessed as change in serum AST level administered at 30 mg/kg/day, IG continuously for 3 months; assay type: organism-based; conditions: in vivo, po, 2190 h
[19] = Toxicity in 2.5 months old SAMP-6 rapid aging mouse model assessed as change in triglyceride level administered at 30 mg/kg/day, IG continuously for 3 months; assay type: organism-based; conditions: in vivo, po, 2190 h
[20] = Toxicity in 2.5 months old SAMP-6 rapid aging mouse model assessed as change in serum ALT level administered at 30 mg/kg/day, IG continuously for 3 months in presence of ALN; assay type: organism-based; conditions: in vivo, po, 2190 h
[21] = Toxicity in 2.5 months old SAMP-6 rapid aging mouse model assessed as change in serum AST level administered at 30 mg/kg/day, IG continuously for 3 months in presence of ALN; assay type: organism-based; conditions: in vivo, po, 2190 h
[22] = Toxicity in 2.5 months old SAMP-6 rapid aging mouse model assessed as change in ALP level administered at 30 mg/kg/day, IG continuously for 3 months in presence of ALN; assay type: organism-based; conditions: in vivo, po, 2190 h
[23] = Toxicity in 2.5 months old SAMP-6 rapid aging mouse model assessed as change in urea level administered at 30 mg/kg/day, IG continuously for 3 months in presence of ALN; assay type: organism-based; conditions: in vivo, po, 2190 h
[24] = Toxicity in 2.5 months old SAMP-6 rapid aging mouse model assessed as change in creatinine level administered at 30 mg/kg/day, IG continuously for 3 months in presence of ALN; assay type: organism-based; conditions: in vivo, po, 2190 h
[25] = system: Mus musculus; assay: Anti osteoporosis in 2.5 months old SAMP-6 rapid aging mouse model assessed as increase in osteoblast formation administered at 30 mg/kg/day, IG continuously for 3 months; assay type: functional, organism-based
[26] = system: Mus musculus; assay: Anti osteoporosis in 16 months old C57 mouse assessed as granulocyte level in femur administered at 30 mg/kg/day, IG continuously for 4 months by scRNA-seq analysis (reference value: 28.33%); assay type: functional; conditions: 2920 h
[27] = system: Mus musculus; assay: Anti osteoporosis in 16 months old C57 mouse assessed as B cell level in femur administered at 30 mg/kg/day, IG continuously for 4 months by scRNA-seq analysis (reference value: 5.19%); assay type: functional; conditions: 2920 h
[28] = system: Mus musculus; assay: Anti osteoporosis in 16 months old C57 mouse assessed as erythroblast level in femur administered at 30 mg/kg/day, IG continuously for 4 months by scRNA-seq analysis (reference value: 1.91%); assay type: functional; conditions: 2920 h
[29] = system: Mus musculus; assay: Anti osteoporosis in 16 months old C57 mouse assessed as macrophage level in femur administered at 30 mg/kg/day, IG continuously for 4 months by scRNA-seq analysis (reference value: 1.88%); assay type: functional; conditions: 2920 h
[30] = system: Mus musculus; assay: Anti osteoporosis in 16 months old C57 mouse assessed as myeloid progenitor level in femur administered at 30 mg/kg/day, IG continuously for 4 months by scRNA-seq analysis (reference value: 2.18%); assay type: functional; conditions: 2920 h
[31] = system: Mus musculus; assay: Anti osteoporosis in 16 months old C57 mouse assessed as dendritic cell level in femur administered at 30 mg/kg/day, IG continuously for 4 months by scRNA-seq analysis (reference value: 1.34%); assay type: functional; conditions: 2920 h
[32] = system: Osteoblast; assay: Upregulation of transcription factor HMGA1 expression in 16 months old C57 mouse osteoblast by scRNA-seq analysis; assay type: functional, cell-based
[33] = system: Osteoblast; assay: Upregulation of transcription factor MKRN1 expression in 16 months old C57 mouse osteoblast by scRNA-seq analysis; assay type: functional, cell-based
[34] = system: Osteoblast; assay: Regulation of osteogenesis in 16 months old C57 mouse osteoblast endoplasmic reticulum assessed as increase in Hspa1b gene by scRNA-seq analysis; assay type: functional, cell-based
[35] = system: Osteoblast; assay: Regulation of osteogenesis in 16 months old C57 mouse osteoblast endoplasmic reticulum assessed as increase in Hspa8 gene by scRNA-seq analysis; assay type: functional, cell-based

COc1ccc2cc(C(=O)NCCN(C)C)oc2c1.CS(=O)(=O)O
0.32%: Activity [30]
Non-Toxic: Activity [7] | Activity [8] | Activity [9] | Activity [10] | Activity [13] | Activity [14] | Activity [15] | Activity [16] | Activity [17] | Activity [18] | Activity [19] | Activity [20] | Activity [21] | Activity [22] | Activity [23] | Activity [24]
34.01%: Activity [26]
1.33%: Activity [29]
active: Activity [3] | Activity [6] | Activity [11] | Activity [12] | Activity [25] | Activity [32] | Activity [33] | Activity [34] | Activity [35]
3.05%: Activity [27]
19181: Flu intensity [2]
inactive: Activity [4] | Activity [5]
3: fold change (FC) [1]
0.68%: Activity [31]
1.42%: Activity [28]
